Reference: ChEMBL document CHEMBL1201862, “PubChem BioAssay data set” (2004)
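Interpolation was linear, between the two tested concentrations surrounding the appropriate level; five concentrations were tested over 48 hours in 96-well plates. At the GI50, growth is halved.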 Active and inactive are the calls of the source. No stated cut-off is given here; in the data, active = GI50 up to about 1.1 µM and inactive = higher.

What was measured:
Experiment in all cases: NCI tumour cell line growth inhibition, 48 h
A498 = test system: A498
SNB-19 = test system: SNB-19
SR = test system: SR
ACHN = test system: ACHN
OVCAR-3 = test system: OVCAR-3
SF-295 = test system: SF-295
IGROV-1 = test system: IGROV-1
EKVX = test system: EKVX
NCI/ADR-RES = test system: NCI/ADR-RES
HL-60 = test system: HL-60
MCF7 = test system: MCF7
CAKI-1 = test system: CAKI-1
CCRF-CEM = test system: CCRF-CEM
HOP-18 = test system: HOP-18
XF498 = test system: XF498
SNB-78 = test system: SNB-78
DLD-1 = test system: DLD-1
TK-10 = test system: TK-10
LXFL 529 = test system: LXFL 529
RXF 631 = test system: RXF 631

Row | SMILES | GI50 (A498) | GI50 (SNB-19) | GI50 (SR) | GI50 (ACHN) | GI50 (OVCAR-3) | GI50 (SF-295) | GI50 (IGROV-1) | GI50 (EKVX) | GI50 (NCI/ADR-RES) | GI50 (HL-60) | GI50 (MCF7) | GI50 (CAKI-1) | GI50 (CCRF-CEM) | GI50 (HOP-18) | GI50 (XF498) | GI50 (SNB-78) | GI50 (DLD-1) | GI50 (TK-10) | GI50 (LXFL 529) | GI50 (RXF 631)
1 | O=C1CCC[C@H]2O[C@@H](COC(=O)c3ccccc3)C[C@H]2O1 | > 100 µM (inactive) | > 100 µM (inactive) | > 100 µM (inactive) | > 100 µM (inactive) | > 100 µM (inactive) | > 100 µM (inactive) | > 100 µM (inactive) | > 100 µM (inactive) | > 100 µM (inactive) | > 100 µM (inactive) | > 100 µM (inactive) | > 100 µM (inactive) | > 100 µM (inactive) |  |  |  |  |  |  | 
2 | CN(C)C(=O)N(CCCl)N=O | > 100 µM (inactive) | > 100 µM (inactive) |  |  | > 100 µM (inactive) | > 100 µM (inactive) | > 100 µM (inactive) | > 100 µM (inactive) | > 100 µM (inactive) | > 100 µM (inactive) | > 100 µM (inactive) | > 100 µM (inactive) | > 100 µM (inactive) | > 100 µM (inactive) | > 81.1 µM (inactive) | > 100 µM (inactive) | > 100 µM (inactive) |  |  | 
3 | CC(C)OP(=O)(OC(C)C)C1=NN(c2ccc([N+](=O)[O-])cc2)C(P(=O)(OC(C)C)OC(C)C)=NN1c1ccc([N+](=O)[O-])cc1 |  | > 100 µM (inactive) | 9.08 µM (inactive) | > 100 µM (inactive) | > 100 µM (inactive) |  | > 100 µM (inactive) | 8.91 µM (inactive) |  | 2.55 µM (inactive) |  | 63.5 µM (inactive) | 91.4 µM (inactive) | > 100 µM (inactive) | 7.98 µM (inactive) |  | 5.32 µM (inactive) | > 100 µM (inactive) | 22.9 µM (inactive) | 
4 | C1=C(c2ccccc2)SC(N2CCCCC2)S1 (centres undefined) | > 100 µM (inactive) | > 100 µM (inactive) | 90.8 µM (inactive) |  | > 100 µM (inactive) | > 100 µM (inactive) | > 100 µM (inactive) | 86.7 µM (inactive) |  | 69 µM (inactive) |  |  | 95.5 µM (inactive) |  | > 100 µM (inactive) | > 100 µM (inactive) | > 100 µM (inactive) | > 100 µM (inactive) | 77.3 µM (inactive) | 
5 | Cc1ccc(S(=O)(=O)Oc2cc(-c3ccccc3)nc3ccccc23)cc1 | 2.36 µM (inactive) | 0.419 µM (active) |  |  | 2.12 µM (inactive) | 1.91 µM (inactive) | 3.85 µM (inactive) | 19.4 µM (inactive) | 1.95 µM (inactive) | 1.03 µM (active) | 0.604 µM (active) |  | 2.89 µM (inactive) | 7.62 µM (inactive) | 3.91 µM (inactive) | 7.08 µM (inactive) | 2.49 µM (inactive) |  |  | 
6 | O=C(NCCN(CCNC(=O)c1cccc(=O)n1O)CCNC(=O)c1cccc(=O)n1O)c1cccc(=O)n1O | > 100 µM (inactive) | > 100 µM (inactive) | > 100 µM (inactive) | > 100 µM (inactive) | > 100 µM (inactive) | > 100 µM (inactive) | > 100 µM (inactive) |  | > 100 µM (inactive) | > 100 µM (inactive) | > 100 µM (inactive) | > 100 µM (inactive) | > 100 µM (inactive) |  |  |  |  | > 100 µM (inactive) |  | 
7 | COc1ccc(/C(Cl)=C(\C=O)c2ccc(Cl)cc2)cc1 | 30.1 µM (inactive) | 7.01 µM (inactive) | 2.69 µM (inactive) | 3.27 µM (inactive) | 4.68 µM (inactive) | 4.4 µM (inactive) | 7.71 µM (inactive) | 5.07 µM (inactive) |  | 3.46 µM (inactive) |  | 9.51 µM (inactive) | 2.94 µM (inactive) | 30.3 µM (inactive) |  | 6.85 µM (inactive) | 4.85 µM (inactive) | 6.15 µM (inactive) | 9.23 µM (inactive) | 3.64 µM (inactive)
8 | Cc1cn([C@@H]2C[C@H](CO)[C@@H](O)C2)c(=O)[nH]c1=O |  | > 100 µM (inactive) |  | > 100 µM (inactive) | > 100 µM (inactive) | > 100 µM (inactive) | > 100 µM (inactive) | > 100 µM (inactive) |  | > 100 µM (inactive) |  |  | > 100 µM (inactive) | > 100 µM (inactive) | > 100 µM (inactive) | > 100 µM (inactive) | > 100 µM (inactive) |  | > 100 µM (inactive) | > 100 µM (inactive)
